Experimental data from US20040121021A1, “Determination of adequate ozone disinfection” (priority 2002, published 2004).

Experiment: Bleaching of dye-impregnated filter paper strips in flowing ozonated water
Format: physicochemical
Excerpt: Each kind of indicator-impregnated substrate, or Ct strip, must be tested to empirically determine the Ct value range most suitable for that particular combination of indicator and substrate. To empirically determine the Ct value range for a Ct strip having a particular indicator impregnated onto a particular substrate having particular properties, the particular Ct strip is exposed to known concentrations of ozone over incremental periods of time. The resulting color of the substrate is recorded after given increments of time until the color is entirely bleached out or until a maximum desired exposure time has passed. The color of the Ct strip, after each time increment of immersion in a known concentration of ozone, is an accurate measure of the Ct value for an exposed surface. The resulting colors are recorded for comparison use, as on a color chart, for that particular combination of indicator and substrate. Strips of filter paper ½″×2″ were cut and immersed in a 1000 ppm solution of Solvent Green 3 (1,4-bis[(4-methylphenyl)amino]-9,10-anthracenedione) in acetone for 5 seconds at room temperature. When dyed in this manner, strips were initially an extremely dark green and dried to a medium green color. When submerged in a flowing bath of 3 ppm ozone dissolved in water, bleaching was observed. […] Strips of filter paper ½″×2″ were cut and immersed in a 1000 ppm solution of Solvent Red 23 in acetone for 5 seconds at room temperature. When submerged in a flowing bath of 5 ppm ozone dissolved in water, bleaching was observed. […] Strips of filter paper ½″×2″ were cut and immersed in a 1000 ppm solution of Solvent Violet 13 in acetone for 5 seconds at room temperature. When submerged in a flowing bath of 5 ppm ozone dissolved in water, bleaching was observed. […] Strips of filter paper ½″×2″ were cut and immersed in a 500 ppm solution of Solvent Yellow 33 in acetone for 5 seconds at room temperature. When submerged in a flowing bath of 6 ppm ozone dissolved in water, bleaching was observed.

**Q.** Which color loss (filter paper strip dyed in 500 ppm solution in acetone, flowing bath of 6 ppm ozone dissolved in water, after 20 minutes) does the source give for `O=C1c2ccccc2C(=O)C1c1ccc2ccccc2n1` [Solvent Yellow 33] here?
**A.** complete color loss

**Q.** Which color loss (filter paper strip dyed in 1000 ppm Solvent Red 23 solution in acetone, flowing bath of 5 ppm ozone dissolved in water, after 240 minutes) does the source give for `Cc1ccc(Nc2ccc(O)c3c2C(=O)c2ccccc2C3=O)cc1` [Solvent Violet 13] here?
**A.** ~75%

**Q.** For `Cc1ccc(Nc2ccc(Nc3ccc(C)cc3)c3c2C(=O)c2ccccc2C3=O)cc1` [Solvent Green 3, 1,4-bis[(4-methylphenyl)amino]-9,10-anthracenedione], which color loss (filter paper strip dyed in 1000 ppm solution in acetone, flowing bath of 3 ppm ozone dissolved in water, after 90 minutes) is on record?
**A.** ~40%

**Q.** For `Oc1ccc2ccccc2c1N=Nc1ccc(N=Nc2ccccc2)cc1` [Solvent Red 23], which color loss (filter paper strip dyed in 1000 ppm Solvent Red 23 solution in acetone, flowing bath of 5 ppm ozone dissolved in water, after 90 minutes) is on record?
**A.** ~30%
